Data published in patent US8815869B2, “Lactam acetamides as calcium channel blockers” (AbbVie Inc., priority 2010, dated 2014).

Columns and labels:
[1] = tested on: Sprague Dawley rats; experiment: Capsaicin induced secondary mechanical hyperalgesia model; format: in vivo; settings: po, 1 h; 30 mg/kg p.o., 60 minutes before testing; relative to vehicle; secondary mechanical hyperalgesia 180 minutes after capsaicin; rat
Description: (iii) In Vivo Data—Capsaicin Induced Secondary Mechanical Hyperalgesia Model
Sprague Dawley rats were briefly restrained, and capsaicin was administered at 10 μg in 10 μL of vehicle by intraplantar injection into the center of the right hind paw. Secondary mechanical hyperalgesia (SMH) was measured at the heel away from the site of injection 180 minutes following capsaicin exposure. Compounds and gabapentin (positive control), were administered p.o. 60 minutes before testing (2 hours after capsaicin) or i.p. 30 minutes before testing (2.5 hours after capsaicin). SMH was measured using calibrated von Frey filaments (Stoelting, Woodale, Ill.). Following the 1 hour habituation in the testing room, rats were moved to individual plexiglass chambers that sit on top of a wire mesh to allow for access for stimulation of the plantar surface of the hind paws. Rats were allowed to acclimate to the new chambers for 15 minutes before the onset of testing. The paw withdrawal threshold was determined by increasing and decreasing stimulus intensity (force: g) and calculated using Dixon's up-down method (Chaplan, S R; et al. J. Neuroscience Methods 1994; 53: 55-63). The filaments (maximum force of 15.0 g) were held in place for 8 seconds or until there was a withdrawal response from the mechanical stimulation.

[2] = target: T1, Human Cav3.2 (Homo sapiens, UniProt O95180); experiment: Electrophysiologic (whole-cell patch-clamp) assessment of calcium channel activity, HEK293 cells stably expressing hCav3.2; format: cell-based; settings: −77 mV, GeoMean
T1 construct: expressed in transfected cells
Description: (ii) In Vitro Methods—Electrophysiologic Assessment of Calcium Channel Activity
Patch-clamp recordings were performed using HEK293 cells stably expressing hCav3.2. Cells were plated in T175 flasks and grown at 37° C. and under 5% CO2 to approximately 50% confluency. On the day of the experiment, cells were harvested with Detachin™ cell detachment solution (Genlantis, San Diego, Calif.) and maintained in serum-free culture medium supplemented with 25 mM HEPES up to several hours prior to experiment. Whole-cell patch-clamp recordings were obtained using extracellular saline consisting of (mM): 87.5 CsCl, 40 TEA-Cl, 5 CaCl2, 1 MgCl2, 10 HEPES, 10 glucose. The pH was adjusted to 7.2 with CsOH and the osmolarity was adjusted to approximately 310 mOsm with sucrose. Intracellular solution consisted of (mM): 112 CsCl, 27 CsF, 2 NaCl, 8.2 EGTA, 10 HEPES. Prior to an experiment 4 mM Mg2ATP was added and the pH was adjusted to 7.2 with CsOH with an osmolarity of approximately 290 mOsm. A two-pulse voltage protocol was utilized to assess compound inhibition. First, cells were held with an 8 second pre-pulse at −100 mV prior to a 160 millisecond test pulse to −30 mV. This was followed by an 8 second pre-pulse at approximately −75 mV prior to a […] test pulse to −30 mV. Increasing concentrations of antagonist were applied to individual cells in a multi-addition format with 5 minutes in each test concentration. For each cell, responses were normalized to dimethyl sulfoxide vehicle control to generate concentration-response curves.

T1 sequence (O95180 whole entry): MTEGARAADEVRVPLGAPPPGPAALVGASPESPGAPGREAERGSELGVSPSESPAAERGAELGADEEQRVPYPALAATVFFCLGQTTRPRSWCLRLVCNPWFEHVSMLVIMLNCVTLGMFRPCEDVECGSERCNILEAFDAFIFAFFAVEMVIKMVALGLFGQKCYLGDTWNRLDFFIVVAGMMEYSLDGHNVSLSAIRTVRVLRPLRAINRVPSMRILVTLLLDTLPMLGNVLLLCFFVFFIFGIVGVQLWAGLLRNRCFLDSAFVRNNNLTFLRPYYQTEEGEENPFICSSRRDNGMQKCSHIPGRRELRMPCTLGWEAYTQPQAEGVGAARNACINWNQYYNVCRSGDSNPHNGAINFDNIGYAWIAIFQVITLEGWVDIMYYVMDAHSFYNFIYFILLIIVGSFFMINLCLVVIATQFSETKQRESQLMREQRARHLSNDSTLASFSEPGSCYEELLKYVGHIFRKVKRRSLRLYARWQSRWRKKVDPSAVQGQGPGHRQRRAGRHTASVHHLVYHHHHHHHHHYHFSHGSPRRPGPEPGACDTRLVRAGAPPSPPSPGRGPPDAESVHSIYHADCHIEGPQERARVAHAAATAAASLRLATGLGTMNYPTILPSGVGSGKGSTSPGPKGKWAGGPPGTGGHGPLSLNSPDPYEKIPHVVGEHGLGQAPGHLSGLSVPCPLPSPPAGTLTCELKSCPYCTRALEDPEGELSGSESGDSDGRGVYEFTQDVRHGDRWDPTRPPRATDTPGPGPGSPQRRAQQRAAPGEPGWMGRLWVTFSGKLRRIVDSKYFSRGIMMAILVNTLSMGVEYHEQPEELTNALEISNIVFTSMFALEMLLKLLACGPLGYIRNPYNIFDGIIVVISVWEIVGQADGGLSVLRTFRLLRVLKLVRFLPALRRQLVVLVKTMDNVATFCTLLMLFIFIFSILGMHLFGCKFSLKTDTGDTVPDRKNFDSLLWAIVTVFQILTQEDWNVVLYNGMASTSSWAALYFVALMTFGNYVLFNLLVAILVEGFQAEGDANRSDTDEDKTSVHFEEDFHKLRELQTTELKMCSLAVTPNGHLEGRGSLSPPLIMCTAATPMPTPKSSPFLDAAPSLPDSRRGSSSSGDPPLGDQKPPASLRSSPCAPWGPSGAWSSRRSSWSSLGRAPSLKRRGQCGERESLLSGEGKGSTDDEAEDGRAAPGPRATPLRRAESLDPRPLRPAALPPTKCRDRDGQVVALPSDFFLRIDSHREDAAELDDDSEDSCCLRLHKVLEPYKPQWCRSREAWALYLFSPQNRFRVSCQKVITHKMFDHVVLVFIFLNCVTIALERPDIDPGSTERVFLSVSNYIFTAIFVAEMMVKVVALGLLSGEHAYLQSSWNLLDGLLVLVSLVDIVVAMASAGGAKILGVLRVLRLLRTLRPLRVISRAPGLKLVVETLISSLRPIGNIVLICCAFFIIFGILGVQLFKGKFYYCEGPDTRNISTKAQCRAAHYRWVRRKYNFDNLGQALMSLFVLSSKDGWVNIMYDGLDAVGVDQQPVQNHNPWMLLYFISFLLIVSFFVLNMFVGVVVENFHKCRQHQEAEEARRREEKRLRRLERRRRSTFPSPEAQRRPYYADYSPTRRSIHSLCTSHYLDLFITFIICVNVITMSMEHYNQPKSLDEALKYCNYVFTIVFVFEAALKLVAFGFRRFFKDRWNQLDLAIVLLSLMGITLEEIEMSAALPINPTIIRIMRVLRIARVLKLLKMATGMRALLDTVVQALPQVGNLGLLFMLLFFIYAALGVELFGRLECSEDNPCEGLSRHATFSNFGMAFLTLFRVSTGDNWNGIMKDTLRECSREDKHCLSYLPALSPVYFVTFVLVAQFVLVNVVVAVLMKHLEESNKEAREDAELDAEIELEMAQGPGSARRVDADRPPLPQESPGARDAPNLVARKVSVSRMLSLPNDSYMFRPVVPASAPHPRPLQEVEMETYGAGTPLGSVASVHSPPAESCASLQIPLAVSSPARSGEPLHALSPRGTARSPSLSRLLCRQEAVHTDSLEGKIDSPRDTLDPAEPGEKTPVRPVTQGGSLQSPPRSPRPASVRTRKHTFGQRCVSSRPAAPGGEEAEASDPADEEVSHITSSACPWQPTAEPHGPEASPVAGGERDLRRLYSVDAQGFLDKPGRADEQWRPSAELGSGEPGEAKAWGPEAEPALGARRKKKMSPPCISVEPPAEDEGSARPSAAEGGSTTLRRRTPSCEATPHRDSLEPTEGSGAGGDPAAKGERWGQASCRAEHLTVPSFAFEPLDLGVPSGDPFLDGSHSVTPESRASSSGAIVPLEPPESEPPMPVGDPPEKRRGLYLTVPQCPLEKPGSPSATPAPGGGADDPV

SMILES: O=C(CN1CCCC(c2ccc(F)cc2)(c2ccc(F)cc2)C1=O)N1CCNCC1 [Example 23, 3,3-Bis(4-fluorophenyl)-1-(2-oxo-2-piperazin-1-ylethyl)piperidin-2-one]
- inhibition in vivo at 30 mg/kg [1]: -2%

SMILES: O=C(CN1CCCC(c2ccccc2)(c2ccccc2)C1=O)NC[C@H]1CCCN1 [Example 8, 2-(2-Oxo-3,3-diphenylpiperidin-1-yl)-N-[(2R)-pyrrolidin-2-ylmethyl]acetamide]
- IC50 [2]: > 10 µM

SMILES: O=C(CN1CCC(c2ccc(F)cc2)(c2ccc(F)cc2)C1=O)NC1CNC1 [Example 16, N-Azetidin-3-yl-2-[3,3-bis(4-fluorophenyl)-2-oxopyrrolidin-1-yl]acetamide]
- IC50 [2]: 0.82 µM

SMILES: O=C(CN1CCC(c2ccc(F)cc2)(c2ccc(F)cc2)C1=O)N(C1CCNCC1)C1CC1 [Example 17, 2-[3,3-Bis(4-fluorophenyl)-2-oxopyrrolidin-1-yl]-N-cyclopropyl-N-piperidin-4-ylacetamide]
- IC50 [2]: 4.07 µM

SMILES: O=C(CN1CCCC(c2ccccc2)(c2ccccc2)C1=O)N1CCC[C@H]2CNC[C@H]21 [Example 5, 1-{2-[(4aS,7aS)-Octahydro-1H-pyrrolo[3,4-b]pyridin-1-yl]-2-oxoethyl}-3,3-diphenylpiperidin-2-one]
- IC50 [2]: 1.6 µM

SMILES: O=C(CN1CCCC(c2ccccc2)(c2ccccc2)C1=O)NC1CNC1 [Example 11, N-Azetidin-3-yl-2-(2-oxo-3,3-diphenylpiperidin-1-yl)acetamide]
- IC50 [2]: 0.56 µM

SMILES: O=C(CN1CCC(c2ccccc2)(c2ccccc2)C1=O)N1CCN(C2CCCCC2)CC1 [Example 21, 1-[2-(4-Cyclohexylpiperazin-1-yl)-2-oxoethyl]-3,3-diphenylpyrrolidin-2-one]
- IC50 [2]: 1 µM

SMILES: O=C(CN1CCC(c2ccc(F)cc2)(c2ccc(F)cc2)C1=O)N1CCN2CCC[C@@H]2C1 [Example 15, 3,3-Bis(4-fluorophenyl)-1-{2-[(8aR)-hexahydropyrrolo[1,2-a]pyrazin-2(1H)-yl]-2-oxoethyl}pyrrolidin-2-one]
- IC50 [2]: 2.16 µM

SMILES: O=C(CN1CCCC(c2ccccc2)(c2ccccc2)C1=O)N1C[C@@H]2CN[C@@H](C2)C1 (relative stereo) [Example 13, 1-{2-[(1S*,5S*)-3,6-Diazabicyclo[3.2.1]oct-3-yl]-2-oxoethyl}-3,3-diphenylpiperidin-2-one]
- IC50 [2]: 3.6 µM
- inhibition in vivo at 30 mg/kg [1]: 60%

SMILES: O=C(CN1CCCC(c2ccccc2)(c2ccccc2)C1=O)N1C[C@H]2CCCN[C@H]2C1 [Example 4, 1-{2-[(4aR,7aR)-Octahydro-6H-pyrrolo[3,4-b]pyridin-6-yl]-2-oxoethyl}-3,3-diphenylpiperidin-2-one]
- IC50 [2]: > 10 µM
- inhibition in vivo at 30 mg/kg [1]: 19%

SMILES: O=C(CN1CCCC(c2ccccc2)(c2ccccc2)C1=O)NC[C@@H]1CCCN1 [Example 9, 2-(2-Oxo-3,3-diphenylpiperidin-1-yl)-N-[(2S)-pyrrolidin-2-ylmethyl]acetamide]
- IC50 [2]: 5.86 µM

SMILES: CN1CCN(C(=O)CN2CCCC(c3ccccc3)(c3ccccc3)C2=O)CC1 [Example 22, 1-[2-(4-Methylpiperazin-1-yl)-2-oxoethyl]-3,3-diphenylpiperidin-2-one]
- IC50 [2]: > 10 µM

SMILES: O=C(CN1CCC(c2ccc(F)cc2)(c2ccc(F)cc2)C1=O)N(C1CCCC1)C1CCNCC1 [Example 19, 2-[3,3-Bis(4-fluorophenyl)-2-oxopyrrolidin-1-yl]-N-cyclopentyl-N-piperidin-4-ylacetamide]
- IC50 [2]: 1.1 µM

SMILES: CC1(C)C(=O)NCCN1C(=O)CN1CCCC(c2ccccc2)(c2ccccc2)C1=O [Example 2, 3,3-Dimethyl-4-[(2-oxo-3,3-diphenylpiperidin-1-yl)acetyl]piperazin-2-one]
- IC50 [2]: 2.77 µM

SMILES: O=C(CN1CCCC(c2ccccc2)(c2ccccc2)C1=O)NC1CCNCC1 [Example 1, 2-(2-Oxo-3,3-diphenylpiperidin-1-yl)-N-(piperidin-4-yl)acetamide]
- IC50 [2]: > 10 µM

SMILES: O=C(CN1CCC(c2ccc(F)cc2)(c2ccc(F)cc2)C1=O)N(C1CCC1)C1CCNCC1 [Example 18, 2-[3,3-Bis(4-fluorophenyl)-2-oxopyrrolidin-1-yl]-N-cyclobutyl-N-piperidin-4-ylacetamide]
- IC50 [2]: 9.1 µM
- inhibition in vivo at 30 mg/kg [1]: 5%

SMILES: O=C(CN1CCC(c2ccccc2)(c2ccccc2)C1=O)N1CCNCC1 [Example 24, 1-(2-Oxo-2-piperazin-1-ylethyl)-3,3-diphenylpyrrolidin-2-one]
- inhibition in vivo at 30 mg/kg [1]: 52%

SMILES: O=C(CN1CCCC(c2ccccc2)(c2ccccc2)C1=O)N1CC2CNCC2C1 (stereo not shown) [Example 6, 1-(2-Hexahydropyrrolo[3,4-c]pyrrol-2(1H)-yl-2-oxoethyl)-3,3-diphenylpiperidin-2-one]
- IC50 [2]: 5.31 µM
- inhibition in vivo at 30 mg/kg [1]: 74%

SMILES: O=C(CN1CCC(c2ccc(F)cc2)(c2ccc(F)cc2)C1=O)N1CCNCC1 [Example 14, 3,3-Bis(4-fluorophenyl)-1-(2-oxo-2-piperazin-1-ylethyl)pyrrolidin-2-one]
- IC50 [2]: 7.75 µM
- inhibition in vivo at 30 mg/kg [1]: 52%

SMILES: O=C(CN1CCCC(c2ccccc2)(c2ccccc2)C1=O)N1C[C@@H]2CCCN[C@@H]2C1 [Example 3, 1-{2-[(4aS,7aS)-Octahydro-6H-pyrrolo[3,4-b]pyridin-6-yl]-2-oxoethyl}-3,3-diphenylpiperidin-2-one]
- IC50 [2]: 4.35 µM
- inhibition in vivo at 30 mg/kg [1]: 31%

SMILES: O=C(CN1CCCC(c2ccccc2)(c2ccccc2)C1=O)N1CCNCC1 [Example 12, 1-(2-Oxo-2-piperazin-1-ylethyl)-3,3-diphenylpiperidin-2-one]
- IC50 [2]: > 10 µM
- inhibition in vivo at 30 mg/kg [1]: 41%

SMILES: O=C1CN(C(=O)CN2CCCC(c3ccccc3)(c3ccccc3)C2=O)CCN1 [Example 10, 4-[(2-Oxo-3,3-diphenylpiperidin-1-yl)acetyl]piperazin-2-one]
- IC50 [2]: > 10 µM

SMILES: O=C(CN1CCCC(c2ccccc2)(c2ccccc2)C1=O)N1CC2(CCNCC2)C1 [Example 7, 1-[2-(2,7-Diazaspiro[3.5]non-2-yl)-2-oxoethyl]-3,3-diphenylpiperidin-2-one]
- IC50 [2]: 5.8 µM
- inhibition in vivo at 30 mg/kg [1]: 19%
